Results reported in PubChem BioAssay (NCI).
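The compound was tested at five concentrations on cells cultured in 96-well plates, with a 48-hour exposure period. GI50 is the concentration that inhibits growth by half. The concentration for full growth arrest is given as TGI.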

Tests used:
Assay in all cases: DTP human tumour cell line panel, 48 h
U251 CNS = test system: U251 CNS
M14 melanoma = test system: M14 melanoma
UO-31 renal = test system: UO-31 renal
SW-620 colon = test system: SW-620 colon
HL-60(TB) leukemia = test system: HL-60(TB) leukemia
IGROV1 ovarian = test system: IGROV1 ovarian
OVCAR-8 ovarian = test system: OVCAR-8 ovarian
ACHN renal = test system: ACHN renal
OVCAR-5 ovarian = test system: OVCAR-5 ovarian
NCI-H522 lung = test system: NCI-H522 lung

| Compound | GI50 (U251 CNS) | TGI (U251 CNS) | GI50 (M14 melanoma) | TGI (M14 melanoma) | GI50 (UO-31 renal) | TGI (UO-31 renal) | GI50 (SW-620 colon) | TGI (SW-620 colon) | GI50 (HL-60(TB) leukemia) | TGI (HL-60(TB) leukemia) | GI50 (IGROV1 ovarian) | TGI (IGROV1 ovarian) | GI50 (OVCAR-8 ovarian) | TGI (OVCAR-8 ovarian) | GI50 (ACHN renal) | TGI (ACHN renal) | GI50 (OVCAR-5 ovarian) | TGI (OVCAR-5 ovarian) | TGI (NCI-H522 lung) | GI50 (NCI-H522 lung) |
| --- | --- | --- | --- | --- | --- | --- | --- | --- | --- | --- | --- | --- | --- | --- | --- | --- | --- | --- | --- | --- |
| CC(C)COc1nc2c(c(=O)n(C)c(=O)n2C)n1C | > 100 µM | > 100 µM | > 100 µM | > 100 µM | > 100 µM | > 100 µM | > 100 µM | > 100 µM | > 100 µM | > 100 µM | 0.544 µM | > 100 µM | > 100 µM | > 100 µM | > 100 µM | > 100 µM | > 100 µM | > 100 µM | – | – |
| O=C1C2C3CC(C4C5C=CC(C5)C34)C2C2C3CC(C12)C1C2C=CC(C2)C31 (stereo not drawn) | – | > 100 µM | – | > 100 µM | – | > 100 µM | – | 49.5 µM | – | > 100 µM | – | > 100 µM | – | > 100 µM | – | > 100 µM | – | > 100 µM | > 100 µM | – |
| Cc1cn(Cc2ccc(C34CC5CC(CC(C5)C3)C4)c(O)c2)c(=O)[nH]c1=O | 11.9 µM | 24.8 µM | 11.5 µM | 26.9 µM | 11.6 µM | 23.8 µM | 8.59 µM | 20.9 µM | 2.73 µM | 6.53 µM | – | – | – | – | 10.8 µM | 24.3 µM | 16.1 µM | 29.8 µM | 24.2 µM | 8.04 µM |
| CSc1nc2c(c(=O)n1C)CN(C1CCCCC1)C(=O)C(c1ccccc1)N2 (stereo not drawn) | 41.4 µM | > 100 µM | 43.5 µM | > 100 µM | 34.1 µM | > 100 µM | 38.5 µM | > 100 µM | 17.5 µM | 67.5 µM | 34.6 µM | > 100 µM | 46.9 µM | > 100 µM | 12.1 µM | > 100 µM | > 100 µM | > 100 µM | > 100 µM | 11.9 µM |
| O=C1C=CC(=O)c2c(O)c3c(c(O)c21)C[C@H](O)[C@H](O)[C@@H]3O | – | 16.3 µM | – | 3.86 µM | – | > 24 µM | – | 2.37 µM | – | 2.9 µM | – | 6.92 µM | – | 6.59 µM | – | 8 µM | – | 17.2 µM | – | – |
| Clc1cccc(C2N3CCCCC3[C@@H]3c4[nH]c5ccccc5c4CCN23)c1 (stereo partly drawn) | – | 73.5 µM | – | 78.5 µM | – | 82 µM | – | > 100 µM | – | 44.1 µM | – | > 100 µM | – | > 100 µM | – | 69.4 µM | – | 55.5 µM | – | – |
| CCOP(=O)(OCC)C(C(=O)OC)C(=O)C(=O)Nc1cccc(O)c1 (stereo not drawn) | – | > 100 µM | – | > 100 µM | – | > 100 µM | – | > 100 µM | – | – | – | > 100 µM | – | > 100 µM | – | > 100 µM | – | > 100 µM | > 100 µM | – |
| Cc1cc(C)c(-c2c(N)cc(Br)cc2Br)c(N)c1 | 4.73 µM | 17 µM | 4.4 µM | 15.7 µM | 5.4 µM | 20 µM | 3.93 µM | 16 µM | – | – | 6.13 µM | 22.7 µM | 10.2 µM | 31.7 µM | 10 µM | 22.8 µM | 11.6 µM | 25.6 µM | 19.1 µM | 4.85 µM |
| CC(=O)[CH-]C(=O)c1ccccc1.CC(=O)[CH-]C(=O)c1ccccc1.O=S(=O)([O-])c1cc([O-])c2c([O-])cc(S(=O)(=O)[O-])cc2c1.[Na+].[Zr+4] | > 100 µM | > 100 µM | 52.2 µM | > 100 µM | > 100 µM | > 100 µM | > 100 µM | > 100 µM | > 100 µM | > 100 µM | > 100 µM | > 100 µM | > 100 µM | > 100 µM | > 100 µM | > 100 µM | > 100 µM | > 100 µM | > 100 µM | > 100 µM |
| CO[C@H]1CC(O[C@@H]2/C(C)=C/C[C@@H]3C[C@@H](C[C@]4(CC[C@H](C)[C@@H](C5CCCCC5)O4)O3)OC(=O)[C@@H]3C=C(C)/C(=N/O)[C@H]4OC/C(=C\C=C\[C@@H]2C)[C@]43O)O[C@@H](C)C1O (stereo partly drawn) | 0.759 µM | 1.47 µM | 1.5 µM | 4.62 µM | 0.769 µM | 1.98 µM | 0.777 µM | 1.5 µM | 1.01 µM | 2.27 µM | 1.07 µM | 2.69 µM | 0.962 µM | 2.41 µM | 0.994 µM | 2.01 µM | 0.917 µM | 2.02 µM | 3.13 µM | 1.12 µM |
| O=C(O)C1[O][Sb][O]C(C(=O)O)C1O (stereo not drawn) | > 100 µM | > 100 µM | > 100 µM | > 100 µM | > 100 µM | > 100 µM | > 100 µM | > 100 µM | – | – | > 100 µM | > 100 µM | > 100 µM | > 100 µM | > 100 µM | > 100 µM | > 100 µM | > 100 µM | > 100 µM | > 100 µM |
| Cc1cccc(C)c1N1C(=O)C(=O)C(c2nc3ccccc3s2)/C(=N\N)C1=O (stereo not drawn) | – | > 100 µM | – | > 100 µM | – | > 100 µM | – | > 100 µM | – | > 100 µM | – | > 100 µM | – | > 100 µM | – | > 100 µM | – | > 100 µM | > 100 µM | – |
| COc1ccc(OC)c(/C=N/N=C(\N)NO)c1 | – | > 100 µM | – | 89.4 µM | – | 60.3 µM | – | > 100 µM | – | > 100 µM | – | > 100 µM | – | > 100 µM | – | 81.4 µM | – | > 100 µM | 35 µM | – |
| CN1CCN(Cc2ccc(NC(=O)c3cncc(C#Cc4cnc(N)c5cccnc45)c3)cc2C(F)(F)F)CC1 | 0.233 µM | > 31.5 µM | 0.143 µM | 0.604 µM | 1.1 µM | 2.78 µM | 0.262 µM | 2.9 µM | 0.223 µM | 1.17 µM | – | – | 0.397 µM | > 50 µM | – | – | 0.537 µM | > 50 µM | > 50 µM | 0.29 µM |
| NS(=O)(=O)c1cc(C(=O)O)c(O)c2ccccc12 | – | > 100 µM | – | > 100 µM | – | > 100 µM | – | > 100 µM | – | > 100 µM | – | > 100 µM | – | > 100 µM | – | > 100 µM | – | > 100 µM | > 100 µM | – |
